The values below come from patent publication US20260176289A1, “SMALL MOLECULE INHIBITORS OF KRAS PROTEINS” (Merck Sharp & Dohme LLC, priority 2022, published 2026).

pIC50: −log10 of the molar value.

The pIC50 is −log10 of the IC50, conventionally taken in molar units.

One test deals with KRAS-G12V (Homo sapiens, UniProt P01116, G12V). Kind of test: SOS-catalyzed nucleotide exchange assay (Procedure A, TR-FRET), KRAS-G12V. Particulars: nucleotide exchange, read-out: KRAS G12V GNE IC50. Format: biochemical. The method, boiled down: (§1)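 RAS (G12C carries C51S/C80L/C118S) loaded with Bodipy-GDP, complexed with Tb-streptavidin; cpd 60 min RT; + SOS/3 mM GTP. G12C 3/40 nM, WT 1/40, NRAS 1.25/40 nM RAS/SOS, 60 min; G12V 1.25/160 nM, 90 min. Normalized to DMSO and saturating inhibitor; 4PL fit.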
KRAS-G12V, sequence (P01116 with tags, fused parts or gaps isoform P01116-2 G12V): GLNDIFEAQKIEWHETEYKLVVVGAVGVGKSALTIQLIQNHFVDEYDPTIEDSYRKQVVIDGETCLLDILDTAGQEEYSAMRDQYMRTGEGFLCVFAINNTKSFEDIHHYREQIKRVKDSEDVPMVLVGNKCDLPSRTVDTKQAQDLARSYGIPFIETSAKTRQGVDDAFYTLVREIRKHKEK
(In general: Time-resolved FRET reads energy transfer from a long-lived donor to a nearby acceptor.)

Another test deals with AsPC-1 cells. Description: Cellular phospho-ERK assay, AsPC-1 cells (homozygous KRAS-G12D). Format: cell-based. The conditions noted are these: Homo sapiens, ASPC1, 2 h, 2 hours compound incubation, read-out: AsPC1 pERK IC50. The gist of the method: (§2)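 Cells were seeded overnight, then treated 2 h at 37° C with compound in a 10-point, 1:3 titration from 30 μM top final concentration. Lysates were assayed by AlphaLISA SureFire Ultra for p-ERK and total ERK. IC50 came from a 4-parameter logistic fit of the p-ERK/total ERK ratio.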

The target in test [1] is KRAS-G12C (C51S/C80L/C118S) (Homo sapiens, UniProt P01116, C118S/C51S/C80L/G12C). Description: SOS-catalyzed nucleotide exchange assay (Procedure A, TR-FRET), KRAS-G12C. The conditions noted are these: nucleotide exchange, Procedure A; read-out: KRAS G12C GNE IC50. Format: biochemical. The source says: (§3) Procedure for SOS-Catalyzed Nucleotide Exchange Assay for KRAS-WT, G12C/D/V, G13D, HRAS, and NRAS (Procedure A)
KRAS-G12C (C51S/C80L/C118S), sequence (P01116 with tags, fused parts or gaps isoform P01116-2 G12C/C51S/C80L/C118S): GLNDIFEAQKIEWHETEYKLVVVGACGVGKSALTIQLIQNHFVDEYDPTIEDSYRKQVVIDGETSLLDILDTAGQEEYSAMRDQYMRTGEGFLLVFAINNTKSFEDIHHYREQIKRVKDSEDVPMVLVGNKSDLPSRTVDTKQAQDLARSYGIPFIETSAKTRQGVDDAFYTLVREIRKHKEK
(§4) Recombinant KRAS-G12C protein used in this assay has an additional triple mutation (C51S/C80L/C118S). Whereas KRAS-WT, G12D/V, G13D, HRAS and NRAS are in context of their WT protein sequence background. Specifically, the SOS-catalyzed nucleotide exchange assay utilizes a preformed TR-FRET complex containing a specific biotinylated RAS protein (KRAS-WT, G12C/V/D, G13D, HRAS, NRAS; described above) with Bodipy-GDP, and Terbium-streptavidin. Compounds are preincubated with this complex for 60 minutes. Subsequently, recombinant human SOS protein and unlabeled GTP are added to initiate the exchange reaction. Small molecule inhibitors stabilize the Bodipy-GDP complex whereas the untreated protein rapidly exchanges Bodipy-GDP for unlabeled GTP resulting in reduced TR-FRET signal.
(§5) To assemble the preformed TR-FRET complexes, each biotinylated RAS protein is diluted to 2 μM in an EDTA Buffer (20 mM HEPES pH 7.5, 50 mM sodium chloride, 10 mM EDTA, and 0.01% Tween) and incubated at room temperature for one hour. This mixture is then further diluted to 90 nM in an Assay Buffer (20 mM HEPES pH 7.5, 150 mM sodium chloride, 10 mM magnesium chloride, and 0.005% Tween) containing 15 nM of Terbium-Streptavidin (Invitrogen, catalog #PV3577) and 900 nM of Bodipy-GDP (Invitrogen, catalog #G22360) and incubated at room temperature for six hours. It should be noted that this preformed TR-FRET complex for each of the RAS protein were made ahead of time, aliquoted and stored at −80° C. until the day of the experiment.
(§6) Each test compound (10 mM stock in DMSO) is diluted in DMSO to make a final-10-point, 3-fold dilution and is acoustically dispensed into a 384-well assay plate (Corning, catalog #3820) using an Echo 550 (Labcyte). Each well of the assay plate receives 3 μL of a specific 3×RAS preformed TR-FRET complex and 3 μL of Assay Buffer and is incubated at room temperature for 60 minutes (preincubation time). Each well then receives 3 μL of 3×recombinant human SOS protein and GTP (Sigma, G8877) in Assay Buffer and is incubated at room temperature for 30 minutes (G13D), 60 minutes (KRAS WT/G12C/D, H/NRAS) or 90 minutes for G12V. The final reaction in each well of 9 μL consists of 3 mM GTP, specific Ras and SOS proteins in the following concentrations: KRAS-G12C/SOS=3 nM/40 nM, KRAS-WT and G12D/SOS=1 nM/40 nM, KRAS-G12V/SOS=1.25 nM/160 nM. KRAS-G13D/SOS=1.25 nM/0 nM, HRAS and NRAS=1.25 nM/40 nM.
(§7) The time-resolved fluorescence resonance energy transfer (TR-FRET) signal is measured on an Envision (PerkinElmer) plate reader: Excitation filter=340 nm; emission 1=495 nm; emission2=520 nm; dichroic mirror=D400/D505; delay time=[…]. The signal of each well is determined as the ratio of the emission at 520 nm to that at 495 nm. Percent effect of each well is determined after normalization to control wells containing DMSO (no effect) or a saturating concentration of inhibitor (max effect). The apparent effect as a function of compound concentration is fit to a four-parameter logistic equation.

The target in a further test is KRAS-G12D (Homo sapiens, UniProt P01116, G12D). Kind of test: SOS-catalyzed nucleotide exchange assay (Procedure A, TR-FRET), KRAS-G12D. Format: biochemical. The conditions noted are these: nucleotide exchange, read-out: KRAS G12D GNE IC50. The gist of the method:
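Signal ratio (520/495 nm, excitation 340 nm) reports Bodipy-GDP retention on biotinylated RAS after SOS-catalyzed exchange with 3 mM GTP. SOS was 40 nM, except 160 nM for G12V. Room-temperature exchange lasted 60 min (90 min for G12V), following a 60 min compound preincubation.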

A further test addresses KRAS-WT (Homo sapiens, UniProt P01116). Description: SOS-catalyzed nucleotide exchange assay (Procedure A, TR-FRET), KRAS-WT. Format: biochemical. The conditions noted are these: nucleotide exchange, read-out: KRAS WT GNE IC50. The gist of the method: as §1
The target in the next test is KRAS-G13D (Homo sapiens, UniProt P01116, G13D). Description: SOS-catalyzed nucleotide exchange assay (Procedure A, TR-FRET), KRAS-G13D. Format: biochemical. The conditions noted are these: nucleotide exchange, Procedure A; read-out: KRAS G13D GNE IC50.
KRAS-G13D, sequence (P01116 with tags, fused parts or gaps isoform P01116-2 G13D): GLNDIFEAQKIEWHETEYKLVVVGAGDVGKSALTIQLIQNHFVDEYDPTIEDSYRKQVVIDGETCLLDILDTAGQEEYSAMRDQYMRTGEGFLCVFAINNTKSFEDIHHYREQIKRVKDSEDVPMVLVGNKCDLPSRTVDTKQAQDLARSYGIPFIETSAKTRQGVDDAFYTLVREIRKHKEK
Description: as §3, §4, §5, §6, §7

For the next test, the system named is SW620 cells. Kind of test: Cellular phospho-ERK assay, SW620 cells (homozygous KRAS-G12V). Format: cell-based. Particulars: Homo sapiens, SW-620, 2 hours compound incubation, read-out: SW620 pERK IC50. The gist of the method: as §2
In a further test the test system is MKN-1 cells. Kind of test: Cellular phospho-ERK assay, MKN-1 cells (amplified wild-type KRAS). Format: cell-based. The conditions noted are these: Homo sapiens, 2 hours compound incubation, read-out: MKN1 pERK IC50. The method, boiled down: as §2

KRAS-G12D, sequence (P01116 with tags, fused parts or gaps isoform P01116-2 G12D): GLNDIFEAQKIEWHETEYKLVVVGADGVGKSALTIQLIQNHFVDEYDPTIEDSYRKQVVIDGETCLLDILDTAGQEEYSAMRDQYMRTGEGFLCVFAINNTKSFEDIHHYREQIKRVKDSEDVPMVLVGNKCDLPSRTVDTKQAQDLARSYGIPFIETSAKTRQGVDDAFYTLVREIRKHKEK
KRAS-WT, sequence (P01116 with tags, fused parts or gaps isoform P01116-2): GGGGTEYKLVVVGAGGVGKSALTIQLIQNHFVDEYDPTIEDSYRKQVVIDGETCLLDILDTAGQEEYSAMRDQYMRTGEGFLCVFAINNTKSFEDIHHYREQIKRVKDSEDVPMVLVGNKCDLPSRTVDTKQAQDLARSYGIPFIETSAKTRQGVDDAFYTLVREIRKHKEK

Consider `Cc1cc2[nH]ncc2c(-c2nccc3c2sc2nc(OC[C@@]45CCCN4C[C@H](F)C5)nc(NC4(CO)COC4)c23)c1C(F)(F)F` [Ex-185, (3-((2-(((2R,7aS)-2-fluoro-tetrahydro-1H-pyrrolizin-7a(5H)-yl)methoxy)-8-(6-methyl-5-(trifluoromethyl)-1H-indazol-4-yl)pyrido [4′,3′:4,5]thieno[2,3-d]pyr-imidin-4-yl)amino)oxetan-3-yl)methanol], for which the pIC50 on KRAS-G12V is 6.50; in the test on AsPC-1 cells, 5.34; in test [1], 6.84; on KRAS-G12D it was 6.32; at KRAS-WT, 5.86; on KRAS-G13D, 6.07.

Consider `Cc1cc2[nH]ncc2c(-c2nccc3c2sc2nc(OC[C@@]45CCCN4C[C@H](F)C5)nc(N4CCOC[C@@](C)(O)C4)c23)c1-c1ccco1` [Ex-146, (6S)-4-(2-(((2R, 7aS)-2-fluorotetra-hydro-1H-pyrrol-izin-7a(5H)-yl)meth-oxy)-8-(5-(furan-2-yl)-6-methyl-1H-indazol-4-yl)pyrido [4′,3′:4,5]thieno[2,3-d]pyrimidin-4-yl)-6-methyl-1,4-oxaze-pan-6-ol], for which the negative logarithm of the IC50 (pIC50) on KRAS-G12V is 7.66; with AsPC-1 cells it was 6.82; in test [1] it was 7.11; on KRAS-G12D it was 7.81; at KRAS-WT, 7.23; on KRAS-G13D, 7.53.

In the case of `Cc1cc2[nH]ncc2c(-c2nccc3c2sc2nc(OC[C@@]45CCCN4C[C@H](F)C5)nc(NC4CCOC4)c23)c1C(F)(F)F` (stereo partly drawn) [Ex-188, 2-(((2R,7aS)-2-fluoro-tetrahydro-1H-pyrrolizin-7a(5H)-yl)methoxy)-8-(6-methyl-5-(trifluoromethyl)-1H-indazol-4-yl)-N-(tetra-hydrofuran-3-yl)pyrido [4′,3′:4,5]thieno[2,3-d] pyrimidin-4-amine], the pIC50 is 6.12 at KRAS-G12V; 5.44 in the test on AsPC-1 cells; 6.25 in test [1]; 5.31 on KRAS-G12D; 5.73 at KRAS-WT; 5.90 on KRAS-G13D.

On to `C[C@@]1(O)COCCN(c2nc(OC[C@@]34CCCN3C[C@H](F)C4)nc3sc4c(-c5c(-c6ccco6)c(Cl)cc6[nH]ncc56)nccc4c23)C1` [Ex-148, (6S)-4-(8-(6-chloro-5-(furan-2-yl)-1H-indazol-4-yl)-2-(((2R,7aS)-2-fluoro-tetrahydro-1H-pyr-rolizin-7a(5H)-yl)-methoxy)pyrido [4′,3′:4,5]thieno[2,3-d]pyrimidin-4-yl)-6-methyl-1,4-oxaze-pan-6-ol], for which the pIC50 on KRAS-G12V is 8.03; in the test with AsPC-1 cells it was 7.04; in test [1], 6.95; at KRAS-G12D, 8.18; on KRAS-WT it was 7.56; on KRAS-G13D, 7.69.

Turning to `Cc1nc2[nH]nc(C)c2c(-c2nccc3c4c(N5CCOC[C@@](C)(O)C5)nc(OC[C@@]56CCCN5C[C@H](F)C6)nc4n(C)c23)c1C(F)(F)F` [Ex-15, (6S)-4-(8-(3,6-dimethyl-5-(trifluoromethyl)-1H-pyrazolo[3,4-b]pyridin-4-yl)-2-(((2R,7aS)-2-fluorotetrahydro-1H-pyrrolizin-7a(5H)-yl)methoxy)-9-methyl-9H-pyrido[4′,3′:4,5]pyrrolo[2,3-d]pyrimidin-4-yl)-6-methyl-1,4-oxazepan-6-ol], the pIC50 is 5.31 on KRAS-G12V; 5.71 in test [1]; 5.04 on KRAS-G12D; 5.10 on KRAS-WT; 5.27 on KRAS-G13D.

As to `CN(C)C[C@@]1(COc2nc(N3CCOC[C@@](C)(O)C3)c3c(n2)sc2c(-c4c(C5CC5)c(C(F)(F)F)cc5[nH]ncc45)nccc23)CC1(F)F` [Ex-206, (6S)-4-(8-(5-cyclo-propyl-6-(trifluoro-methyl)-1H-inda-zol-4-yl)-2-(((R)-1-((dimethylamino)-methyl)-2,2-difluorocycloprop-yl)methoxy)pyrido [4′,3′:4,5]thieno [2,3-d]pyrimidin-4-yl)-6-methyl-1,4-oxazepan-6-ol], the pIC50 is 7.81 with SW620 cells; 7.65 at KRAS-G12V; 7.64 in the test on MKN-1 cells; 7.62 with AsPC-1 cells; 8.45 in test [1]; 8.15 at KRAS-G12D. In addition, at KRAS-WT, the pIC50 was 7.63.

For `C[C@@]1(O)COCCN(c2nc(OC[C@@]34CCCN3C[C@H](F)C4)nc3sc4c(-c5ccc(F)c6sc(N)c(C#N)c56)nccc4c23)C1` [Ex-275, 2-amino-7-fluoro-4-(2-(((2R,7aS)-2-fluoro-tetrahydro-1H-pyrrolizin-7a(5H)-yl)methoxy)-4-((S)-6-hydroxy-6-methyl-1,4-oxazepan-4-yl)pyrido[4′,3′:4,5]thi-eno[2,3-d]pyrimidin-8-yl)benzo[b]thiophene-3-carbonitrile], the pIC50 on KRAS-G12V was 5.53; in test [1] it was 5.65; on KRAS-G12D, 5.88; at KRAS-WT it was 5.82; on KRAS-G13D, 5.92.

Turning to `C[C@@]1(O)COCCN(c2nc(OC[C@]3(CN4CC5(COC5)C4)CC3(F)F)nc3sc4c(-c5c(C6CC6)c(Cl)cc6[nH]ncc56)nccc4c23)C1` [Ex-213, (6S)-4-(2-(((R)-1-((2-oxa-6-azaspiro [3.3]heptan-6-yl)-methyl)-2,2-difluoro-cyclopropyl)meth-oxy)-8-(6-chloro-5-cyclopropyl-1H-indazol-4-yl)pyrido [4′,3′:4,5]thieno [2,3-d]pyrimidin-4-yl)-6-methyl-1,4-oxazepan-6-ol], the pIC50 with SW620 cells was 7.37; at KRAS-G12V, 7.95; in the test with MKN-1 cells it was 7.18; with AsPC-1 cells, 7.32; on KRAS-G12D, 8.46; on KRAS-WT, 7.91.
